Measurements as given in patent EP3860599B1, “(+)-ALPHA-DIHYDROTETRABENAZINE DOSAGE REGIMEN FOR TREATING MOVEMENT DISORDERS” (Adeptio Pharmaceuticals Limited, priority 2018, dated 2020).

Assay: Plasma concentrations after oral dosing (solution in apple juice) of human volunteers, Example 1A
Format: in vivo
Conditions: human, plasma, po
Procedure: (+)-α-Dihydrotetrabenazine in defined amounts was administered by oral dosing (as a solution in apple juice) to six human volunteers. […] At 60 minutes after drug administration, PET scans were initiated and these were stopped at 120 minutes after drug administration. The experiment was carried out at dosages of 7.5 mg, 15 mg and 22.5 mg. […]

[1] = 7.5 mg, subject 1 (112 kg), 7.5 mg oral
[2] = 7.5 mg, subject 2 (76 kg), 7.5 mg oral
[3] = 7.5 mg, subject 3 (129 kg), 7.5 mg oral
[4] = 7.5 mg, subject 4 (59 kg), 7.5 mg oral
[5] = 7.5 mg, subject 5 (91 kg), 7.5 mg oral
[6] = 7.5 mg, subject 6 (68 kg), 7.5 mg oral
[7] = 15 mg, subject 1 (112 kg), 15 mg oral
[8] = 15 mg, subject 2 (76 kg), 15 mg oral
[9] = 15 mg, subject 3 (129 kg), 15 mg oral
[10] = 15 mg, subject 4 (59 kg), 15 mg oral
[11] = 15 mg, subject 5 (91 kg), 15 mg oral
[12] = 15 mg, subject 6 (68 kg), 15 mg oral
[13] = 22.5 mg, subject 1 (112 kg), 22.5 mg oral
[14] = 22.5 mg, subject 2 (76 kg), 22.5 mg oral

COc1cc2c(cc1OC)[C@H]1C[C@@H](O)[C@H](CC(C)C)CN1CC2 [(+)-α-dihydrotetrabenazine, (R,R,R)-3-isobutyl-9,10-dimethyloxy-1,3,4,5,7,11b-hexahydro-2H-pyrido[2,1-a]isoquinolin-2-ol]
concentration at 1 h [1]: 0.94 ng/mL
concentration at 1.5 h [1]: 2.39 ng/mL
concentration at 2 h [1]: 2.44 ng/mL
concentration at 3 h [1]: 3.01 ng/mL
concentration at 0.5 h [2]: 0.531 ng/mL
concentration at 1 h [2]: 13.7 ng/mL
concentration at 1.5 h [2]: 10.8 ng/mL
concentration at 2 h [2]: 14 ng/mL
concentration at 3 h [2]: 22.2 ng/mL
concentration at 0.5 h [3]: 0.216 ng/mL
concentration at 1 h [3]: 4.35 ng/mL
concentration at 1.5 h [3]: 6.91 ng/mL
concentration at 2 h [3]: 5.03 ng/mL
concentration at 3 h [3]: 6.96 ng/mL
concentration at 0.5 h [4]: 8.43 ng/mL
concentration at 1 h [4]: 15 ng/mL
concentration at 1.5 h [4]: 20.7 ng/mL
concentration at 2 h [4]: 17.6 ng/mL
concentration at 3 h [4]: 19.6 ng/mL
concentration at 0.5 h [5]: 6.68 ng/mL
concentration at 1 h [5]: 9.8 ng/mL
concentration at 1.5 h [5]: 13.5 ng/mL
concentration at 2 h [5]: 10.7 ng/mL
concentration at 3 h [5]: 11.2 ng/mL
concentration at 1 h [6]: 3.77 ng/mL
concentration at 1.5 h [6]: 3.06 ng/mL
concentration at 2 h [6]: 4.33 ng/mL
concentration at 3 h [6]: 9.18 ng/mL
concentration at 0.5 h [7]: 4.02 ng/mL
concentration at 1 h [7]: 11.1 ng/mL
concentration at 1.5 h [7]: 10.7 ng/mL
concentration at 2 h [7]: 10.2 ng/mL
concentration at 3 h [7]: 10.6 ng/mL
concentration at 0.5 h [8]: 7.99 ng/mL
concentration at 1 h [8]: 22.8 ng/mL
concentration at 1.5 h [8]: 46.4 ng/mL
concentration at 2 h [8]: 35.7 ng/mL
concentration at 3 h [8]: 46.5 ng/mL
concentration at 0.5 h [9]: 1.2 ng/mL
concentration at 1 h [9]: 14.3 ng/mL
concentration at 1.5 h [9]: 17.9 ng/mL
concentration at 2 h [9]: 12 ng/mL
concentration at 3 h [9]: 18.2 ng/mL
concentration at 0.5 h [10]: 26.7 ng/mL
concentration at 1 h [10]: 53.8 ng/mL
concentration at 1.5 h [10]: 42.5 ng/mL
concentration at 2 h [10]: 53.3 ng/mL
concentration at 3 h [10]: 60.2 ng/mL
concentration at 0.5 h [11]: 15.6 ng/mL
concentration at 1 h [11]: 34.2 ng/mL
concentration at 1.5 h [11]: 27.1 ng/mL
concentration at 2 h [11]: 31.8 ng/mL
concentration at 3 h [11]: 27.1 ng/mL
concentration at 0.5 h [12]: 5.41 ng/mL
concentration at 1 h [12]: 10.6 ng/mL
concentration at 1.5 h [12]: 16.1 ng/mL
concentration at 2 h [12]: 17.4 ng/mL
concentration at 3 h [12]: 14.9 ng/mL
concentration at 0.5 h [13]: 9.61 ng/mL
concentration at 1 h [13]: 18 ng/mL
concentration at 1.5 h [13]: 16.8 ng/mL
concentration at 2 h [13]: 14.9 ng/mL
concentration at 3 h [13]: 13.2 ng/mL
concentration at 0.5 h [14]: 5.23 ng/mL
concentration at 1 h [14]: 21.8 ng/mL
concentration at 1.5 h [14]: 36.2 ng/mL
concentration at 2 h [14]: 40.2 ng/mL
concentration at 3 h [14]: 51.8 ng/mL
